# pEC50, pIC50: −log10 of the molar value. Where two headings read alike, the source gives them in different places. Square brackets hold non-standard residues; d marks the D form. Peptide text beside a SMILES is read from it. NMeTrp(1-(4-Br-benzyl)) = CN[C@@H](Cc1cn(Cc2ccc(Br)cc2)c2ccccc12)C(=O)O; Butanoyl(2R-oxy,4-CN) = N#CCC[C@@H](O)C(=O)O; Abu(4,4,4-F3) = N[C@@H](CC(F)(F)F)C(=O)O; tBuAla = CC(C)(C)C[C@H](N)C(=O)O; NMeL = CN[C@@H](CC(C)C)C(=O)O; NMeA = CN[C@@H](C)C(=O)O
# Columns and labels:
# Format in all cases: cell-based
# [1] = test system: PD1-ss+10aa/Gaussia Luciferase; assay: Dox induced PD1-ss-Gluc assay
# Summary of the method: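 Stable Flp-In 293 T-REx line expressing doxycycline-inducible Gaussia luciferase fused to the PD1 signal sequence plus 10 amino acids. Cells plated the day before, then exposed to compound dilutions in DMSO/media containing doxycycline at 37 °C, 5% CO2.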
# [2] = test system: TNFα-FL/Gaussia Luciferase; assay: Dox induced TNFα-FL-Gluc assay
# Summary of the method: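 Stable Flp-In 293 T-REx line expressing full-length TNFα (aa 1-233) fused at its C-terminus to Gaussia luciferase under doxycycline-inducible control. Cells plated the day before, then given compound dilutions in DMSO/media containing doxycycline and incubated at 37 °C, 5% CO2.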
# [3] = test system: NCI-H929 multiple myeloma cell line; assay: H929 assay (cell viability, Celltiter-Glo); conditions: Homo sapiens, read-out: H929 EC50
# Summary of the method: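 Cells plated in RPMI 1640 with 10% FBS and 2 mM glutamine, treated with compound dilutions in DMSO/media. Incubation 48 h at 37° C, 5% CO2. Viability from luciferase luminescence signal.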
# [4] = test system: Prl-ss+10aa/Gaussia Luciferase; assay: Prl-ss-Gluc assay (constitutively active or 24 hr Dox inducible)
# Summary of the method: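 Stable Flp-In 293 T-REx lines express Prl signal sequence+10aa fused to Gaussia luciferase, either constitutively (pcDNA5/FRT) or under the T-REx promoter (pcDNA5/FRT/TO). Cells plated the day before; compounds in DMSO/media (with doxycycline for the inducible line, 24 h) incubated at 37 °C, 5% CO2.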
# [5] = test system: VCAMss+10aa/Gaussia Luciferase; assay: VCAM-ss-Gluc assay (constitutively active or Dox induced); conditions: Flp-In 293 T-REx cells, 24 hours
# Summary of the method: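 Stable cell lines secreting a VCAM signal sequence+10aa/Gaussia luciferase fusion, expressed either constitutively or under T-REx doxycycline control. Cells plated the day before; compound dilutions in DMSO/media (with doxycycline for the induced line) added and incubated at 37° C, 5% CO2.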
# HER3ss-Gluc = assay: HER3ss assay
# Summary of the method: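 HEK-293T T-REx cells were transiently transfected with HER3 signal sequence (plus four mature-domain residues) fused upstream of mature Gaussia luciferase. Cells were induced with doxycycline (1 μg/ml) and exposed to increasing compound concentrations for 24 h, then secreted luciferase in the conditioned medium was read by luminescence.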
# [6] = test system: BT474 breast tumor cell line; assay: BT474 assay (Alamar blue); conditions: Homo sapiens, BT-474, 72 h
# Summary of the method: (§1)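 For both lines, 5000 cells/well were exposed to compound or a 1% DMSO-medium control for 72 h unless otherwise specified. Signal was normalized to the DMSO control.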
# [7] = test system: JJN3 plasma cell leukemia cell line; assay: JJN-3 assay (Alamar blue); conditions: Homo sapiens, 72 h
# Summary of the method: as §1
# [8] = test system: U266B1 multiple myeloma cell line; assay: U266 assay (cell viability, Celltiter-Glo); conditions: Homo sapiens, U-266; 48 hours, cell viability
# Procedure: Cells were plated in 384-well tissue culture plates and treated with compound dilutions in DMSO/media. Plates were incubated at 37° C., 5% CO2 for 48 hours. After 48 hours, Celltiter-Glo@ (Promega) was added to each well and luciferase signal was quantified using Tecan Infinite M1000 Pro for cell viability determination.
# [9] = Flp-In 293 T-REx cells, doxycycline, 24 hours; read-out: PD1ss Gluc IC50
# [10] = Flp-In 293 T-REx cells, doxycycline, 24 hours; read-out: TNFa FL Gluc IC50
# [11] = NCI-H929, 48 hours, cell viability
# [12] = Flp-In 293 T-REx cells, 24 hours; read-out: Prl IC50
# [13] = HEK-293T T-rex cells, transient transfection, doxycycline, 24 h; read-out: HER3 ss IC50
Structure (SMILES),"pIC50 [1, 9]","pIC50 [2, 10]","pEC50 [3, 11]","pIC50 [4, 12]",pIC50 [5],pIC50 (HER3ss-Gluc; [13]),pEC50 [6],pEC50 [7],pEC50 [8],"pIC50 ([1]; read-out: PD1ss Gluc IC50; Flp-In 293 T-REx cells, doxycycline, 24 hours)","pIC50 ([2]; read-out: TNFa FL Gluc IC50; Flp-In 293 T-REx cells, doxycycline, 24 hours)","pEC50 ([3]; NCI-H929, 48 h)","pIC50 ([4]; read-out: Prl IC50; Flp-In 293 T-REx cells, 24 hours)","pIC50 (HER3ss-Gluc; read-out: HER3 ss IC50; HEK-293T T-rex cells, transient transfection, doxycycline, 24 h)"
"CC(C)C[C@@H]1NC(=O)[C@H](Cc2cn(Cc3ccc(F)cc3)c3ccccc23)N(C)C(=O)[C@H](CC(C)C)NC(=O)[C@H](CC(C)C)N(C)C(=O)[C@H](CC(C)C)NC(=O)[C@@H](CCC#N)OC(=O)[C@H](C)N(C)C1=O [C-12] (HELM PEPTIDE1{L.[meA].[N#CCC[C@@H](O[*:1])C(=O)[*:2]].L.[meL].L.[CN([C@@H](Cc1cn(Cc2ccc(F)cc2)c2ccccc12)C(=O)[*:2])[*:1]]}$PEPTIDE1,PEPTIDE1,1:R1-7:R2$$$V2.0)",8.10,7.36,6.13,5.95,6.64,7.51,6.20,7.15,5.16,–,–,–,–,–
"COc1cccc(Cn2cc(C[C@H]3C(=O)N[C@@H](CC(C)C)C(=O)N(C)[C@@H](C)C(=O)O[C@H](CCC#N)C(=O)N[C@@H](CC(C)C)C(=O)N(C)[C@@H](CC(C)C)C(=O)N[C@@H](CC(C)C)C(=O)N3C)c3ccccc32)c1 [C-13] (HELM PEPTIDE1{L.[meA].[N#CCC[C@@H](O[*:1])C(=O)[*:2]].L.[meL].L.[COc1cccc(Cn2cc(C[C@@H](C(=O)[*:2])N(C)[*:1])c3ccccc32)c1]}$PEPTIDE1,PEPTIDE1,1:R1-7:R2$$$V2.0)",7.52,6.93,6.08,5.72,5.99,7.16,5.87,6.72,4.77,–,–,–,–,–
"CC(C)C[C@@H]1NC(=O)[C@H](Cc2cn(Cc3ccc(Br)cc3)c3ccccc23)N(C)C(=O)[C@H](CC(C)C)NC(=O)[C@H](CC(C)C)N(C)C(=O)[C@H](CC(C)C)NC(=O)[C@@H](CCC#N)OC(=O)[C@H](C)N(C)C1=O [C-14] (HELM PEPTIDE1{L.[meA].[N#CCC[C@@H](O[*:1])C(=O)[*:2]].L.[meL].L.[CN([C@@H](Cc1cn(Cc2ccc(Br)cc2)c2ccccc12)C(=O)[*:2])[*:1]]}$PEPTIDE1,PEPTIDE1,1:R1-7:R2$$$V2.0)",7.74,6.97,5.89,6.44,6.31,7.29,6.07,6.63,5.10,–,–,–,–,–
"Cc1cc(Cn2cc(C[C@H]3C(=O)N[C@@H](CC(C)C)C(=O)N(C)[C@@H](C)C(=O)O[C@H](CCC#N)C(=O)N[C@@H](CC(C)C)C(=O)N(C)[C@@H](CC(C)C)C(=O)N[C@@H](CC(C)C)C(=O)N3C)c3ccccc32)no1 [C-15] (HELM PEPTIDE1{L.[meA].[N#CCC[C@@H](O[*:1])C(=O)[*:2]].L.[meL].L.[Cc1cc(Cn2cc(C[C@@H](C(=O)[*:2])N(C)[*:1])c3ccccc32)no1]}$PEPTIDE1,PEPTIDE1,1:R1-7:R2$$$V2.0)",6.32,5.33,5.23,5.19,5.40,6.55,5.58,5.31,4.69,–,–,–,–,–
"COc1cc(Cn2cc(C[C@H]3C(=O)N[C@@H](CC(C)C)C(=O)N(C)[C@@H](C)C(=O)O[C@H](CCC#N)C(=O)N[C@@H](CC(C)C)C(=O)N(C)[C@@H](CC(C)C)C(=O)N[C@@H](CC(C)C)C(=O)N3C)c3ccccc32)ccc1F [C-27] (HELM PEPTIDE1{L.[meA].[N#CCC[C@@H](O[*:1])C(=O)[*:2]].L.[meL].L.[COc1cc(Cn2cc(C[C@@H](C(=O)[*:2])N(C)[*:1])c3ccccc32)ccc1F]}$PEPTIDE1,PEPTIDE1,1:R1-7:R2$$$V2.0)",7.24,6.63,5.77,6.07,6.85,7.00,5.67,6.50,4.76,–,–,–,–,–
"Cc1cccc(Cn2cc(C[C@H]3C(=O)N[C@@H](CC(C)C)C(=O)N(C)[C@@H](C)C(=O)O[C@H](CCC#N)C(=O)N[C@@H](CC(C)C)C(=O)N(C)[C@@H](CC(C)C)C(=O)N[C@@H](CC(C)C)C(=O)N3C)c3ccccc32)n1 [C-33] (HELM PEPTIDE1{L.[meA].[N#CCC[C@@H](O[*:1])C(=O)[*:2]].L.[meL].L.[Cc1cccc(Cn2cc(C[C@@H](C(=O)[*:2])N(C)[*:1])c3ccccc32)n1]}$PEPTIDE1,PEPTIDE1,1:R1-7:R2$$$V2.0)",6.41,5.87,5.37,5.22,6.62,6.67,5.38,5.83,5.05,–,–,–,–,–
"CC(C)C[C@@H]1NC(=O)[C@H](Cc2cn(Cc3ccc(Br)cc3)c3ccccc23)N(C)C(=O)[C@H](CC(C)C)NC(=O)[C@H](CC(C)C)N(C)C(=O)[C@H](CC(C)(C)C)NC(=O)[C@@H](CCC#N)OC(=O)[C@H](C)N(C)C1=O [C-39] (cyclo(L[NMeA][Butanoyl(2R-oxy,4-CN)][tBuAla][NMeL]L[NMeTrp(1-(4-Br-benzyl))]))",7.17,6.58,5.51,5.48,6.52,6.48,5.45,6.21,–,–,–,–,–,–
"CCCC[C@@H]1NC(=O)[C@@H](CCC#N)OC(=O)[C@H](C)N(C)C(=O)[C@H](CC(C)C)NC(=O)[C@H](Cc2cn(Cc3ccc(Br)cc3)c3ccccc23)N(C)C(=O)[C@H](CC(C)C)NC(=O)[C@H](CC(C)C)N(C)C1=O [C-40] (HELM PEPTIDE1{L.[meA].[N#CCC[C@@H](O[*:1])C(=O)[*:2]].[Nle].[meL].L.[CN([C@@H](Cc1cn(Cc2ccc(Br)cc2)c2ccccc12)C(=O)[*:2])[*:1]]}$PEPTIDE1,PEPTIDE1,1:R1-7:R2$$$V2.0)",7.32,6.74,5.64,5.49,6.91,6.10,5.67,6.49,–,–,–,–,–,–
"CC(C)C[C@@H]1NC(=O)[C@H](Cc2cn(Cc3ccc(Br)cc3)c3ccccc23)N(C)C(=O)[C@H](CC(C)C)NC(=O)[C@H](CC(C)C)N(C)C(=O)[C@H](CC(F)(F)F)NC(=O)[C@@H](CCC#N)OC(=O)[C@H](C)N(C)C1=O [C-41] (cyclo(L[NMeA][Butanoyl(2R-oxy,4-CN)][Abu(4,4,4-F3)][NMeL]L[NMeTrp(1-(4-Br-benzyl))]))",–,–,–,–,7.49,–,6.08,7.14,–,7.72,7.11,5.89,5.99,7.64
"CC(C)C[C@@H]1NC(=O)[C@H](Cc2cn(Cc3ccc(C(F)(F)F)cc3)c3ccccc23)N(C)C(=O)[C@H](CC(C)C)NC(=O)[C@H](CC(C)C)N(C)C(=O)[C@H](CC(C)C)NC(=O)[C@@H](CCC#N)OC(=O)[C@H](C)N(C)C1=O [C-42] (HELM PEPTIDE1{L.[meA].[N#CCC[C@@H](O[*:1])C(=O)[*:2]].L.[meL].L.[CN([C@@H](Cc1cn(Cc2ccc(C(F)(F)F)cc2)c2ccccc12)C(=O)[*:2])[*:1]]}$PEPTIDE1,PEPTIDE1,1:R1-7:R2$$$V2.0)",7.43,6.45,5.40,5.26,6.78,–,5.48,6.05,4.70,–,–,–,–,–
